Results taken from patent publication US20140086939A1, “COMPOSITIONS AND METHODS FOR DETECTING AND TREATING CANCER” (priority 2011, published 2014).
“Also recorded” adds a separate entry of the source.

Tests used:
[1] = tested on: Ikkβ^f/f and Ikkβ^Δ dih10 cells; test: Subcutaneous tumor growth of implanted dih10 hepatoma cells in C57BL/6 mice; format: in vivo, mouse
Protocol: FIG. 20. IKKβ deletion in initiated cells enhances proliferation and self-renewal of HCC progenitors. (A) DEN-induced HCC (dih) cell strains from Ikkβ^f/f mice were cultured and infected with Adv-GFP or Adv-Cre. Whole cell lysates of infected dih10 cells were immunoblotted for IKKβ (bottom panel). The cells were further cultured without serum on Petri dishes to form hepatospheres (upper panels). Numbers of 1^0 and 2^0 hepatospheres formed per 100 plated cells were determined (n=3; *: p<0.05). Magnification bar=100 μm. (B) Ikkβ^f/f dih10 cells were infected with an empty retrovirus (vector) or a retrovirus expressing IκBα super-repressor (SR). Stably transfected cells were selected and cultured as above and hepatosphere formation was analyzed (n=3; *: p<0.05). (C, D) IKKβ expressing (Ikkβ^f/f) and deficient (Ikkβ^Δ) dih10 cells (2.5×10^6 each) were s.c. injected into 8 weeks old C57BL/6 mice. (C) Allograft volume was measured weekly (n=5; *: p<0.01). Dissected tumors are shown on the right. (D) BrdU incorporation into tumors was determined (n=5; *: p<0.05). (E) Ikkβ^f/f and Ikkβ^Δ dih12 cells were labeled with dsRed and 4×10^5 cells were seeded into MUP-uPA mouse livers. Relative amounts of dsRed DNA in transplanted MUP-uPA livers were determined by real-time PCR 3 weeks post-inoculation and normalized to actin DNA as a measurement of cell growth (n=5; *: p<0.05). (F) Ikkβ^Δ dih10 cells were reconstituted with a control vector or WT IKKβ expression vector and were s.c. injected into 8 weeks old C57BL/6 mice. Allograft volume was measured weekly (n=5; *: p<0.01). (G) Ikkβ^f/f and IkkβΔ dih10 cells were s.c. injected as above. Starting from day 2, mice were treated daily with MLN120B or vehicle by oral gavage. Tumor volume was measured weekly (n=5; *: p<0.01, f/f/control vs. f/f/MLN by one-way ANOVA). Please also see FIG. 27.
(§1) FIG. 22. ROS-mediated SHP1/2 inhibition in IKKβ-deficient HCCs correlates with STAT3 activation and accelerated tumor growth. (A) Tumors derived from Ikkβ^f/f (f/f) and Ikkβ^Δ (Δ) dih10 cells were collected and lysed. Tumor lysates were immunoprecipitated with an anti-JAK2 antibody and examined for JAK2 tyrosine phosphorylation with PY20 antibody. Tumor lysates were also used for immunoblot analyses with the indicated antibodies. (B) SHP1 and SHP2 were immunoprecipitated from above tumor lysates and their phosphatase activities were measured (n=4; *: p<0.05). (C) Fresh frozen sections of HCCs from transplanted MUP-uPA mice were analyzed for superoxide accumulation by DHE staining. Fluorescence intensity in several fields was quantitated by ImageJ and relative average increases in fluorescent intensity are shown (n=3; *: p<0.01). Magnification bar=100 μm. (D-F) Ikkβ^f/5 (f/f) and Ikkβ^Δ (Δ) dih10 cells […] each were s.c. implanted into 8 weeks old C57BL/6 mice. Starting on day 2, the mice were switched to a diet containing vehicle or BHA (0.7%) for 6 weeks. (D) Tumors were collected from BHA treated and untreated mice, lysed and SHP1/2 phosphatase activities were measured. The data were plotted as SHP1/2 phosphatase activities in Ikkβ^Δ tumors relative to activities in Ikkβ^f/f tumors (n=4; *: p<0.05). (E) Tumor lysates were used to determine JNK kinase activity and STAT3 phosphorylation. (F) Tumor volume was measured weekly (n=5; p<0.01, Δ/ctrl vs. Δ/BHA by one way ANOVA). Please also see FIG. 29.
FIG. 30. STAT3 is required for HCC formation and growth. (A-D) Ikkβ^f/f (f/f) and Ikkβ^Δ (Δ) dih10 cells were s.c. implanted into 8 weeks old C57BL/6 mice. (A) Starting on day 2, the mice were i.p. injected with vehicle (ctrl) or 0.5 mg/mouse AG490 daily. Tumor volume was measured (n=5; p<0.05, f/f/vehicle vs. f/f/AG490; p<0.01, Δ/vehicle vs. Δ/AG490 by one way ANOVA). (B) After 6 weeks, tumors were removed, lysed and analyzed by immunoblotting with the indicated antibodies. […] (D) After 6 weeks, tumors were removed and analyzed as above. […]

[2] = molecular target: T1, STAT3 (Mus musculus, UniProt P42227); test: STAT3 phosphorylation in lysates of dih10 tumors (immunoblot); format: in vivo
T1 construct: from tissue; host or cells: subcutaneous tumors formed by Ikkβf/f or IkkβΔ dih10 cells in C57BL/6 mice
Protocol: (A) Tumors derived from Ikkβ^f/f (f/f) and Ikkβ^Δ (Δ) dih10 cells were collected and lysed. Tumor lysates were immunoprecipitated with an anti-JAK2 antibody and examined for JAK2 tyrosine phosphorylation with PY20 antibody. Tumor lysates were also used for immunoblot analyses with the indicated antibodies. (B) SHP1 and SHP2 were immunoprecipitated from above tumor lysates and their phosphatase activities were measured (n=4; *: p<0.05). (C) Fresh frozen sections of HCCs from transplanted MUP-uPA mice were analyzed for superoxide accumulation by DHE staining. Fluorescence intensity in several fields was quantitated by ImageJ and relative average increases in fluorescent intensity are shown (n=3; *: p<0.01). Magnification bar=100 μm. (D-F) Ikkβ^f/5 (f/f) and Ikkβ^Δ (Δ) dih10 cells 2.5×10^8 each were s.c. implanted into 8 weeks old C57BL/6 mice. Starting on day 2, the mice were switched to a diet containing vehicle or BHA (0.7%) for 6 weeks. (D) Tumors were collected from BHA treated and untreated mice, lysed and SHP1/2 phosphatase activities were measured. The data were plotted as SHP1/2 phosphatase activities in Ikkβ^Δ tumors relative to activities in Ikkβ^f/f tumors (n=4; *: p<0.05). (E) Tumor lysates were used to determine JNK kinase activity and STAT3 phosphorylation. (F) Tumor volume was measured weekly (n=5; p<0.01, Δ/ctrl vs. Δ/BHA by one way ANOVA).
Antibodies used were: anti-IKKβ (Upstate), anti-JNK1/2 (Pharmingen), anti-c-Jun (Santa Cruz), anti-ERK, and anti-phospho-ERK (Cell Signaling), anti-STAT3 (Santa Cruz), anti-phospho-STAT3 (Cell signaling), anti-Albumin (Novus), anti-SHP1 (Santa Cruz), anti-SHP2 (Cell signaling), anti-SOCS3 (Immuno-Biological Laboratories), anti-phospho-p65 (Cell signaling). […] To measure SHP1/2 phosphatase activities, SHP1 and SHP2 were immunoprecipitated from freshly prepared lysates. Dithiothreitol (DTT) and other reducing agents were excluded from all buffers. SHP1/2 phosphatase activities were determined as described (Lee and Esselman, 2002).

[3] = tested on: many different types of cancer cells transplanted into mice; conditions: in vivo; cited from earlier work
[4] = tested on: SHP1 and SHP2; test: SHP1/2 phosphatase activities in lysates of dih10 tumors; format: in vivo, mouse; conditions: diet containing BHA (0.7%) for 6 weeks
Description: as §1, with “Starting on day 2, the mice were switched to a diet containing vehicle or BHA (0.7%) for 6 weeks.” left out, “The data were plotted as SHP1/2 phosphatase activities in Ikkβ^Δ tumors relative to activities in Ikkβ^f/f tumors (n=4; *: p<0.05). (E) Tumor lysates were used to determine JNK kinase activity and STAT3 phosphorylation.” left out, “Please also see FIG. 29.” left out
(§2) RNA extraction and q-PCR were described (Sakurai et al., 2006). […] SHP1/2 phosphatase activities were determined as described (Lee and Esselman, 2002).

[5] = tested on: JNK; test: JNK kinase activity in lysates of dih10 tumors; format: in vivo, mouse; conditions: diet containing BHA (0.7%) for 6 weeks
Description: as §1, with “Starting on day 2, the mice were switched to a diet containing vehicle or BHA (0.7%) for 6 weeks.” left out, “The data were plotted as SHP1/2 phosphatase activities in Ikkβ^Δ tumors relative to activities in Ikkβ^f/f tumors (n=4; *: p<0.05). (E) Tumor lysates were used to determine JNK kinase activity and STAT3 phosphorylation.” left out, “Please also see FIG. 29.” left out
as §2

[6] = tested on: JAK2; test: JAK2 phosphorylation in IKKβ-deficient tumors; format: in vivo, mouse; conditions: BHA treatment of tumor-bearing mice
Description: as §1, with “The data were plotted as SHP1/2 phosphatase activities in Ikkβ^Δ tumors relative to activities in Ikkβ^f/f tumors (n=4; *: p<0.05). (E) Tumor lysates were used to determine JNK kinase activity and STAT3 phosphorylation.” left out, “Please also see FIG. 29.” left out

[7] = tested on: liver; conditions: cited from earlier work
[8] = tested on: liver; conditions: cited from earlier work; remark: listed apart in the source
[9] = tested on: STAT3 phosphorylation in Ikkβ^f/f dih10 cells; test: IL-6 induced STAT3 phosphorylation by immunoblotting in dih10 cells; format: cell-based, mouse; conditions: dih cells serum starved 48 hrs; 20 μM MLN120B; 10 ng/ml IL-6 30 min
Protocol: (§3) FIG. 28. IKKβ ablation enhances STAT3 activation. (A) Ikkβ^f/f and Ikkβ^Δ dih10 cells were cultured under hepatosphere-forming conditions for 3 days and treated with 10 ng/ml of IL-6 for the indicated times. Whole cell lysates were analyzed by immunoblotting for STAT3 phosphorylation. (B) Ikkβ^f/f and Ikkβ^Δ dih10 cells were cultured under hepatosphere-forming conditions for 3 days and treated with 10 ng/ml of IL-22 for 30 min. STAT3 phosphorylation was analyzed as above. (C) Ikkβ^Δ dih10 cells were cultured under hepatosphere-forming conditions and infected with a control Adv or an Adv vector expressing constitutively active IKKβ^EE. The cells were treated with 10 ng/ml of IL-6 for 15 min and STAT3 phosphorylation was analyzed. (D) Ikkβ^f/f dih10 cells and HepG2 cells were serum starved for 48 hrs and treated with 20 μM MLN120B for the indicated times. The cells were then stimulated with 10 ng/ml of IL-6 for 30 min and STAT3 phosphorylation was analyzed by immunoblotting. Relative activities (RA) of STAT3 phosphorylation were determined by densitometry. (E) Ikkβ^f/f (f/f) and Ikkβ^Δ (Δ) HCCs from transplanted MUP-uPA mice were collected and total RNA was extracted. Expression of IL-6 and IL-22 mRNAs was measured by RT PCR.
as §2

[10] = tested on: STAT3 phosphorylation in HepG2 cells; test: IL-6 induced STAT3 phosphorylation by immunoblotting in HepG2 cells; format: cell-based; conditions: human liver cancer cell line (HepG2) serum starved 48 hrs; 20 μM MLN120B; 10 ng/ml IL-6 30 min
Protocol: as §3, §2

[11] = tested on: human breast cancer cell line with constitutive STAT3 activity; conditions: in vivo; cited from earlier work
[12] = tested on: Huh-7; conditions: 5 mg/kg given every other day; cited from earlier work
[13] = AG490 0.5 mg/mouse i.p. daily from day 2
[14] = diet containing BHA (0.7%) for 6 weeks
[15] = s.c. dih10 in C57BL/6, MLN120B daily by oral gavage from day 2

T1 sequence (P42227 whole entry): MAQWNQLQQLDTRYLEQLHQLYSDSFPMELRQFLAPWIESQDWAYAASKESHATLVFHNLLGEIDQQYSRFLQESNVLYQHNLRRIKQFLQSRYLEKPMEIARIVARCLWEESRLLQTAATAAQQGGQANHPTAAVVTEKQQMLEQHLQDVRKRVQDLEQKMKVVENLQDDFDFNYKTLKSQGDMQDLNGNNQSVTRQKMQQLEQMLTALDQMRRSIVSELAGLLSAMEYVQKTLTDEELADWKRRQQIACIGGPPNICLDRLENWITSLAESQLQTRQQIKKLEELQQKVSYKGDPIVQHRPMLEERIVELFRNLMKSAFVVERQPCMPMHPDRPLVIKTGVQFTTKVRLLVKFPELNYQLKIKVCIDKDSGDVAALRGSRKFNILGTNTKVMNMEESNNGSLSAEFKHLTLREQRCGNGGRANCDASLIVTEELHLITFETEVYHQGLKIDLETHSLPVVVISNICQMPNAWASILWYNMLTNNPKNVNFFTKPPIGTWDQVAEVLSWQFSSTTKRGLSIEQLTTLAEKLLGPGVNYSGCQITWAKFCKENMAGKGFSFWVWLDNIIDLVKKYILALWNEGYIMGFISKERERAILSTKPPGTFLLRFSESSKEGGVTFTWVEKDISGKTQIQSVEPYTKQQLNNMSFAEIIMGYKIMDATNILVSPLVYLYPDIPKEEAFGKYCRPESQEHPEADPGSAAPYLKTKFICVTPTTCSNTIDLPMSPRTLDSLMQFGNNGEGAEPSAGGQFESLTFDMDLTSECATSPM

N#C/C(=C/c1ccc(O)c(O)c1)C(=O)NCc1ccccc1 [AG490]
in vivo tumorigenic growth of dih cells [1]: effective inhibition | Ikkβ^f/f tumorigenic growth [1, 13]: more modest effect | growth of Ikkβ^Δ subcutaneous tumors [1, 13]: inhibited the growth | STAT3 activity in dih cell tumors [2]: effective inhibition | STAT3 phosphorylation in tumors ([2]; AG490 0.5 mg/mouse i.p. daily, tumors after 6 weeks, both IKKβ status): inhibited STAT3 phosphorylation regardless of IKKβ status

Cc1cc(Nc2nc(N[C@@H](C)c3ncc(F)cn3)ncc2Cl)n[nH]1 [AZD1480]
tumorigenic growth of cancer cells transplanted into mice [3]: Effective inhibition

COc1ccc(O)c(C(C)(C)C)c1 [BHA, butylated hydroxyanisole]
Ikkβ^Δ tumor growth [1, 14]: inhibits tumor growth; also recorded: reduced Ikkβ^Δ tumor growth to a level that was similar to that of Ikkβ^f/f tumors in untreated mice | SHP1/2 phosphatase activities in IKKβ-deficient tumors [4]: restores SHP1/2 activity; also recorded: completely restored | STAT3 phosphorylation in tumors [2, 14]: reduced | JNK activity in tumors [5]: reduced JNK activity | JAK2 phosphorylation in IKKβ-deficient tumors [6]: reduces | liver damage, compensatory proliferation and hepatocarcinogenesis ([7]; Ikkβ^Δhep and Ikkγ^Δhep mutant mice, BHA consumption): reversed | ROS accumulation in the liver ([7]; dietary administration): can be prevented

CCN(CC)N=O [DEN, diethyl nitrosamine]
HCC induction ([8]; male mice older than 4 weeks of age): no longer effective in HCC induction on its own | HCC induction, fraction of male mice ([8]; single dose to two-weeks-old mice): 100%

COc1c(Cl)cc2c([nH]c3cnccc32)c1NC(=O)c1cccnc1C [MLN120B]
tumorigenic growth (tumor volume) of Ikkβ^f/f dih cells [1, 15]: enhanced tumorigenic growth | tumorigenic growth (tumor volume) of Ikkβ^Δ dih cells [1, 15]: not Ikkβ^Δ cells | IL-6 induced STAT3 activation [9]: enhanced IL-6 induced STAT3 activation | IL-6 induced STAT3 activation [10]: enhanced IL-6 induced STAT3 activation

Cc1ccc(S(=O)(=O)OCC(=O)Nc2ccc(C(=O)O)c(O)c2)cc1 [S3I-201]
in vivo tumorigenic growth of dih cells [1]: effective inhibition | tumor growth of breast cancer xenografts [11]: inhibition of tumor growth | STAT3 tyrosine phosphorylation in Huh-7 xenografts [12]: inhibited | tumor growth of Huh-7 xenografts [12]: inhibited
